Results: patent publication US20250101041A1, “POSITIVE ALLOSTERIC MODULATORS OF THE MUSCARINIC ACETYLCHOLINE RECEPTOR M4” (Vanderbilt University, priority 2022, published 2025)

Assays:
[1] = cited from earlier work
[2] = Alzheimer's disease patients; cited from earlier work
[3] = patients treated with AChE inhibitors such as tacrine; cited from earlier work
human mAChR M4 = molecular target: T1, human mAChR M4 (Homo sapiens, UniProt P08173); assay: mAChR M4 cell-based functional assay: calcium mobilization (Fluo-4, FDSS), potentiation of EC20 acetylcholine response in hM4-Gqi5 CHO-K1 cells; conditions: human M4; for Emax at 30 µM: CHO-K1, % ACh maximum at 30 μM; for EC50: potentiation of EC20 acetylcholine response, calcium mobilization
T1 construct: expressed in transfected cells; host or cells: CHO-K1 (American Type Culture Collection), stably expressing hM4 and Gqi5
T1 sequence (P08173 1-479): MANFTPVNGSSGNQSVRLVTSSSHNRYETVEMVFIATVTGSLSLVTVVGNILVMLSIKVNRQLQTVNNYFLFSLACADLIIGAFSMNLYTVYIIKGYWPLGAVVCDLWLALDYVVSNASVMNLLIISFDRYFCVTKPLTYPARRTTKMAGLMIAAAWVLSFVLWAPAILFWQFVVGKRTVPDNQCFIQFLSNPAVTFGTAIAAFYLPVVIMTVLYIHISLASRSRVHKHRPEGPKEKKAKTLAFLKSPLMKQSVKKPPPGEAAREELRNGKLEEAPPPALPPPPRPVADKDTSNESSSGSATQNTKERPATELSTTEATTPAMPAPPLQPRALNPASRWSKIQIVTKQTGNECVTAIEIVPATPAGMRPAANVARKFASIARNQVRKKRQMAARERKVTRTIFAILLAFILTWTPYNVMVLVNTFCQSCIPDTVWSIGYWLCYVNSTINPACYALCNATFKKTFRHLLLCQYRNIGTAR
Summary of the method: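 CHO-K1 cells stably co-expressing human M4 and chimeric Gqi5, loaded with Fluo-4 AM (50 min, 37 °C). Compounds in 11-point 1:3 series added first; EC20 acetylcholine added at 144 s and again at 230 s. Calcium read on FDSS at 1 Hz; EC50 and Emax from four-parameter logistic fit of potentiated EC20 response.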

Row | SMILES | Emax at 30 µM (human mAChR M4) | EC50 (human mAChR M4) | also measured
1 | CCCCCCOc1nsnc1C1=CCCN(C)C1 [xanomeline] |  |  | catalepsy ([1]; animal models): without causing catalepsy; activity in animal models with similar profiles to known antipsychotic drugs [1]: active; psychotic behavioral symptoms such as delusions, suspiciousness, vocal outbursts, and hallucinations [2]: reduce psychotic behavioral symptoms; treatment induced side effects [2]: gastrointestinal effects
2 | Nc1c2c(nc3ccccc13)CCCC2 [tacrine] |  |  | patients with elevated liver transaminases (hepatotoxicity) [3]: about 30%
3 | Cc1cc2nccc(=O)n2nc1N1CCc2ncc(N3CCOC(c4ccncc4)C3)cc2C1 (stereo not drawn) [Compound 2-93, 8-methyl-7-(3-(2-(pyridin-4-yl)morpholino)-7,8-dihydro-1,6-naphthyridin-6(5H)-yl)-4H-pyrimido[1,2-b]pyridazin-4-one] | 75% | 1170 nM | 
4 | Cc1cc(=O)n2nc(N3CCc4ncc(-c5cnc(F)cc5C)cc4C3)c(C)cc2n1 [Compound 1-209, 7-(3-(6-fluoro-4-methylpyridin-3-yl)-7,8-dihydro-1,6-naphthyridin-6(5H)-yl)-2,8-dimethyl-4H-pyrimido[1,2-b]pyridazin-4-one] | 88% | 266 nM | 
5 | Cc1ccc(-c2cnc3c(c2)CN(c2nn4c(=O)cc(C)nc4c(C)c2C)CC3)c(C)c1 [Compound 1-136, 7-(3-(2,4-dimethylphenyl)-7,8-dihydro-1,6-naphthyridin-6(5H)-yl)-2,8,9-trimethyl-4H-pyrimido[1,2-b]pyridazin-4-one] | 102% | 633 nM | 
6 | COc1ccncc1-c1cnc2c(c1)CN(c1nn3c(=O)cc(C(F)F)nc3c(C)c1C)CC2 [Compound 1-190, 2-(difluoromethyl)-7-(3-(4-methoxypyridin-3-yl)-7,8-dihydro-1,6-naphthyridin-6(5H)-yl)-8,9-dimethyl-4H-pyrimido[1,2-b]pyridazin-4-one] | 77% | 156 nM | 
7 | Cc1ccc(-c2cnc3c(c2)CN(c2nn4c(=O)cc(C)nc4cc2C)CC3)cc1 [Compound 1-293, 2,8-dimethyl-7-(3-(p-tolyl)-7,8-dihydro-1,6-naphthyridin-6(5H)-yl)-4H-pyrimido[1,2-b]pyridazin-4-one] | 88% | 331 nM | 
8 | CCc1ccncc1-c1cnc2c(c1)CN(c1nn3c(=O)ccnc3c(C)c1C)CC2 [Compound 1-96, 7-(3-(4-ethylpyridin-3-yl)-7,8-dihydro-1,6-naphthyridin-6(5H)-yl)-8,9-dimethyl-4H-pyrimido[1,2-b]pyridazin-4-one] | 63% | 37 nM | 
9 | Cc1cc2nccc(=O)n2nc1N1CCc2ncc(Nc3cccc4c3OCCO4)cc2C1 [Compound 2-72, 7-(3-((2,3-dihydrobenzo[b][1,4]dioxin-5-yl)amino)-7,8-dihydro-1,6-naphthyridin-6(5H)-yl)-8-methyl-4H-pyrimido[1,2-b]pyridazin-4-one] | 69% | 549 nM | 
10 | COc1ccc(C2CN(c3cnc4c(c3)CN(c3nn5c(=O)ccnc5cc3C)CC4)CCO2)cc1 (stereo not drawn) [Compound 2-95, 7-(3-(2-(4-methoxyphenyl)morpholino)-7,8-dihydro-1,6-naphthyridin-6(5H)-yl)-8-methyl-4H-pyrimido[1,2-b]pyridazin-4-one] | 64% | 814 nM | 
11 | Cc1cc(=O)n2nc(N3CCc4ncc(-c5cc(F)cc(F)c5F)cc4C3)c(C)c(C)c2n1 [Compound 1-273, 2,8,9-trimethyl-7-(3-(2,3,5-trifluorophenyl)-7,8-dihydro-1,6-naphthyridin-6(5H)-yl)-4H-pyrimido[1,2-b]pyridazin-4-one] | 75% | 1090 nM | 
12 | Cc1cc(=O)n2nc(N3CCc4ncc(N5CCCn6nc(C)cc65)cc4C3)c(C)cc2n1 [Compound 2-21, 2,8-dimethyl-7-(3-(2-methyl-6,7-dihydropyrazolo[1,5-a]pyrimidin-4(5H)-yl)-7,8-dihydro-1,6-naphthyridin-6(5H)-yl)-4H-pyrimido[1,2-b]pyridazin-4-one] | 87% | 37 nM | 
13 | Cc1ccncc1-c1cnc2c(c1)CN(c1nn3c(=O)cc(C(F)F)nc3c(C)c1C)CC2 [Compound 1-161, 2-(difluoromethyl)-8,9-dimethyl-7-(3-(4-methylpyridin-3-yl)-7,8-dihydro-1,6-naphthyridin-6(5H)-yl)-4H-pyrimido[1,2-b]pyridazin-4-one] | 76% | 92 nM | 
